{"source": "patent US12213959B2", "about": "“Use of 3-O-sulfamoyloxy-7β-methyl-d-homo-6-oxaestra-1,3,5(10),8(9)-tetraen-17a-one to treat breast cancer” (priority 2018, dated 2025)", "key": {"[1]": {"tested_on": "breast tumours in FBV/N female mice, transgenic for HER-2/neu", "assay": "Antitumour activity on breast tumours of HER-2/neu transgenic mice", "assay_type": "in vivo", "settings": "for Average total tumour volume, % of change to the initial value / Average tumor volume, % of change to the initial value: Day 28 vs Day 0; for Absolute number of new tumours / frequency of stabilisations of tumours present at initiation of treatment / volume of new tumours, less than the control (Control-2) value: end of observation", "method": "The study was carried out on female FVB mice transgenic for HER-2/neu of the conventional category, the strain being obtained from the mouse bank Charles River Laboratories (Italy).\nDuration of the administration course was 27-28 days.\nThe control groups were given the olive oil (placebo).\nThe macroscopically detectable tumor nodes were measured in the animals once per week during the weighing process."}, "[2]": {"tested_on": "MCF-7 human cells culture (breast adenocarcinoma)", "assay": "Proliferative activity of MCF-7 cells", "assay_type": "cell-based", "settings": "20 μg/ml", "method": "The study analysis was carried out on an passaged MCF-7 human cells culture culture (breast adenocarcinoma). Normal human dermal fibroblasts (HDF) of early passages were used as a negative control.\nThe cells were cultivated in Carrel vials in DMEM/F12 medium (Biolot) with 1.0% of antibiotic-free fetal bovine embryonic serum (Biolot) added in the 5% CO2 atmosphere, at 37° C.\nThe cells were seeded on Carrel vials at 50×10^4 cells per flask. To study the proliferative activity of the cells under conditions of sulfatase inhibition, 24 hours after seeding the culture medium […], and then these tumor cell lines were incubated for various periods of time (24 to 72 hrs). The inhibitor was dissolved in DMSO. […] To exclude the cytotoxic effect of DMSO, a control sample comprising DMSO without sulfatase inhibitor was prepared.\nTo exclude nonspecific detrimental effects of the compounds, normal human skin fibroblasts were used. Then the cells were detached with the versene-trypsin solution (Biolot), plated onto Carrel vials containing a fresh complete culture medium. The cells were counted when untreated control cells reached the maximum cell density per unit of surface area of a culture flask (monolayer), and their number was set as 100%. The proliferative activity of all of the studied cell cultures exposed to sulfatase inhibitors was determined in triplicate."}, "[3]": {"tested_on": "MDA-MB-231 cell line of triple negative breast cancer", "assay": "Cell growth inhibition on MDA-MB-231", "assay_type": "cell-based", "settings": "Homo sapiens"}, "[4]": {"settings": "medicament 20 mg/kg daily i.g., Day 28"}, "[5]": {"settings": "medicament 20 mg/kg, vs Control-2, Day 0"}, "[6]": {"settings": "medicament 20 mg/kg, vs Control-2, Day 7"}, "[7]": {"settings": "medicament 20 mg/kg, vs Control-2, Day 14"}, "[8]": {"settings": "medicament 20 mg/kg, vs Control-2, Day 21"}, "[9]": {"settings": "medicament 20 mg/kg, vs Control-2, Day 28"}, "[10]": {"settings": "medicament 100 mg/kg daily i.g., Day 0"}, "[11]": {"settings": "medicament 100 mg/kg daily i.g., Day 7"}, "[12]": {"settings": "medicament 100 mg/kg daily i.g., Day 14"}, "[13]": {"settings": "medicament 100 mg/kg daily i.g., Day 21"}, "[14]": {"settings": "medicament 100 mg/kg daily i.g., Day 28"}, "[15]": {"settings": "medicament 100 mg/kg daily i.g."}, "[16]": {"settings": "medicament 100 mg/kg, vs Control-2, Day 0"}, "[17]": {"settings": "medicament 100 mg/kg, vs Control-2, Day 7"}, "[18]": {"settings": "medicament 100 mg/kg, vs Control-2, Day 14"}, "[19]": {"settings": "medicament 100 mg/kg, vs Control-2, Day 21"}, "[20]": {"settings": "medicament 100 mg/kg, vs Control-2, Day 28"}}, "note": "Values joined by “and” are separate entries in the source; they are usually repeats but may differ in a detail not shown here. Equal values may be shown once. Marks after values point to notes of the source that are not given here.", "data": [{"smiles": "C[C@H]1Oc2cc(OS(N)(=O)=O)ccc2C2=C1[C@@H]1CCCC(=O)[C@@]1(C)CC2", "note": "[medicament, 3-O-sulfamoyloxy-7β-methyl-O-homo-6-oxaestra-1,3,5(10),8(9)-tetraen]", "values": [{"measurement": "Average total volume of tumours in mice (M)", "setting": "[1]; [4]", "result": 1.22, "unit": "cm^3"}, {"measurement": "Average volume of tumors existing at the beginning of the experiment (M)", "setting": "[1]; [4]", "result": 0.55, "unit": "cm^3"}, {"measurement": "Relative change of the average total volume of tumours to that of Day −1 (M)", "setting": "[1]; medicament 20.0 mg/kg daily i.g., Day 28", "result": "227*** %"}, {"measurement": "Average total tumour volume, % of change to the initial value", "setting": "[1]; medicament 20 mg/kg daily i.g.", "result": 198, "unit": "%"}, {"measurement": "Average tumor volume, % of change to the initial value", "setting": "[1]; medicament 20 mg/kg daily i.g.", "result": 206, "unit": "%"}, {"measurement": "Absolute number of new tumours", "setting": "[1]; medicament 20 mg/kg", "result": 22}, {"measurement": "frequency of stabilisations of tumours present at initiation of treatment", "setting": "[1]; medicament 20 mg/kg", "result": 9, "unit": "%"}, {"measurement": "volume of new tumours, less than the control (Control-2) value", "setting": "[1]; medicament 20 mg/kg", "result": 32, "unit": "%"}, {"measurement": "TGI (average total tumour volume)", "setting": "[1]; [5]", "result": "−116", "unit": "%"}, {"measurement": "TGI (average tumor volume)", "setting": "[1]; [5]", "result": "−125", "unit": "%"}, {"measurement": "TGI (average total tumour volume)", "setting": "[1]; [6]", "result": "−114", "unit": "%"}, {"measurement": "TGI (average tumor volume)", "setting": "[1]; [6]", "result": "−115", "unit": "%"}, {"measurement": "TGI (average total tumour volume)", "setting": "[1]; [7]", "result": "−45", "unit": "%"}, {"measurement": "TGI (average tumor volume)", "setting": "[1]; [7]", "result": "−54", "unit": "%"}, {"measurement": "TGI (average total tumour volume)", "setting": "[1]; [8]", "result": "−19", "unit": "%"}, {"measurement": "TGI (average tumor volume)", "setting": "[1]; [8]", "result": "−26", "unit": "%"}, {"measurement": "TGI (average total tumour volume)", "setting": "[1]; [9]", "result": 12, "unit": "%"}, {"measurement": "TGI (average tumor volume)", "setting": "[1]; [9]", "result": 10, "unit": "%"}, {"measurement": "Average volume of new tumours at the end of the observation period", "setting": "[1]; medicament 100 mg/kg", "result": "0.18±0.04 cm^3 and 0.18 cm^3"}, {"measurement": "Average total volume of tumours in mice (M)", "setting": "[1]; [10]", "result": 0.28, "unit": "cm^3"}, {"measurement": "Average volume of tumors existing at the beginning of the experiment (M)", "setting": "[1]; [10]", "result": 0.13, "unit": "cm^3"}, {"measurement": "Relative change of the average total volume of tumours to that of Day −1 (M)", "setting": "[1]; medicament 100.0 mg/kg daily i.g., Day 0", "result": 0, "unit": "%"}, {"measurement": "Average total volume of tumours in mice (M)", "setting": "[1]; [11]", "result": 0.41, "unit": "cm^3"}, {"measurement": "Average volume of tumors existing at the beginning of the experiment (M)", "setting": "[1]; [11]", "result": 0.19, "unit": "cm^3"}, {"measurement": "Relative change of the average total volume of tumours to that of Day −1 (M)", "setting": "[1]; medicament 100.0 mg/kg daily i.g., Day 7", "result": 42, "unit": "%"}, {"measurement": "Average total volume of tumours in mice (M)", "setting": "[1]; [12]", "result": 0.59, "unit": "cm^3"}, {"measurement": "Average volume of tumors existing at the beginning of the experiment (M)", "setting": "[1]; [12]", "result": 0.27, "unit": "cm^3"}, {"measurement": "Relative change of the average total volume of tumours to that of Day −1 (M)", "setting": "[1]; medicament 100.0 mg/kg daily i.g., Day 14", "result": "89* %"}, {"measurement": "Average total volume of tumours in mice (M)", "setting": "[1]; [13]", "result": 0.81, "unit": "cm^3"}, {"measurement": "Average volume of tumors existing at the beginning of the experiment (M)", "setting": "[1]; [13]", "result": 0.37, "unit": "cm^3"}, {"measurement": "Relative change of the average total volume of tumours to that of Day −1 (M)", "setting": "[1]; medicament 100.0 mg/kg daily i.g., Day 21", "result": "177*** %"}, {"measurement": "Average total volume of tumours in mice (M)", "setting": "[1]; [14]", "result": "0.97* cm^3"}, {"measurement": "Average volume of tumors existing at the beginning of the experiment (M)", "setting": "[1]; [14]", "result": 0.44, "unit": "cm^3"}, {"measurement": "Relative change of the average total volume of tumours to that of Day −1 (M)", "setting": "[1]; medicament 100.0 mg/kg daily i.g., Day 28", "result": "269*** %"}, {"measurement": "Average total tumour volume, % of change to the initial value", "setting": "[1]; [15]", "result": 246, "unit": "%"}, {"measurement": "Average tumor volume, % of change to the initial value", "setting": "[1]; [15]", "result": 238, "unit": "%"}, {"measurement": "Absolute number of new tumours", "setting": "[1]; medicament 100 mg/kg", "result": 19}, {"measurement": "frequency of stabilisations of tumours present at initiation of treatment", "setting": "[1]; medicament 100 mg/kg", "result": 9, "unit": "%"}, {"measurement": "volume of new tumours, less than the control (Control-2) value", "setting": "[1]; medicament 100 mg/kg", "result": 36, "unit": "%"}, {"measurement": "TGI (average total tumour volume)", "setting": "[1]; [16]", "result": "−47", "unit": "%"}, {"measurement": "TGI (average tumor volume)", "setting": "[1]; [16]", "result": "−63", "unit": "%"}, {"measurement": "TGI (average total tumour volume)", "setting": "[1]; [17]", "result": "−41", "unit": "%"}, {"measurement": "TGI (average tumor volume)", "setting": "[1]; [17]", "result": "−46", "unit": "%"}, {"measurement": "TGI (average total tumour volume)", "setting": "[1]; [18]", "result": 9, "unit": "%"}, {"measurement": "TGI (average tumor volume)", "setting": "[1]; [18]", "result": 4, "unit": "%"}, {"measurement": "TGI (average total tumour volume)", "setting": "[1]; [19]", "result": 18, "unit": "%"}, {"measurement": "TGI (average tumor volume)", "setting": "[1]; [19]", "result": 14, "unit": "%"}, {"measurement": "TGI (average total tumour volume)", "setting": "[1]; [20]", "result": 30, "unit": "%"}, {"measurement": "TGI (average tumor volume)", "setting": "[1]; [20]", "result": 28, "unit": "%"}, {"measurement": "relative change in the total volume of tumours versus control groups", "setting": "[1]; medicament 20 and 100 mg/kg", "result": "statistically significantly lower"}, {"measurement": "proliferation of MCF-7 tumour cells", "setting": "[2]", "result": "completely blocks"}, {"measurement": "IC50", "setting": "[3]", "result": 4.8, "unit": "µM"}]}]}
